Values of other authors in PMC2805559 (Journal of medicinal chemistry, 2009).

Legend:
Hsp90-IP6K2 interaction = settings: ref [16]
tumor = settings: ref [1]

| Molecule | effect on binding of IP6K2 to Hsp90 (Hsp90-IP6K2 interaction) | anti-tumor activity (tumor) |
| --- | --- | --- |
| C=CCNC1=C2C[C@@H](C)C[C@H](OC)[C@H](O)[C@@H](C)/C=C(\C)[C@H](OC(N)=O)[C@@H](OC)/C=C\C=C(/C)C(=O)NC(=CC1=O)C2=O [17-AAG, 17-allylamino, 17-demethoxygeldanamycin] | does not affect the binding | – |
| Sansalvamide A | – | micromolar potency |
